Patent publication US8580525B2, “Methods of screening for LTRPC7 modulators” (The Queen's Medical Center, priority 2000, dated 2013)

Key:
[1] = test system: Wild type HEK-293; experiment: ATP-dependent endogenous currents, whole-cell patch-clamp; assay type: cell-based, human; details: 6 mM ATP in pipette solution
Method: (§1) For patch-clamp experiments, cells grown on glass coverslips were transferred to the recording chamber and kept in a standard modified Ringer's solution of the following composition (in mM): NaCl 145, KCl 2.8, CsCl 10, CaCl2 1, MgCl2 2, glucose 10, Hepes.NaOH 10, pH 7.2. In some experiments, nominally Ca^2+ and/or Mg^2+-free extracellular solutions or isotonic Ca^2+ solutions (120 mM CaCl2) were applied by pressure ejection from wide-tipped pipettes. Intracellular pipette-filling solutions contained (in mM): Cs-glutamate 145, NaCl 8, MgCl2 1, Cs-BAPTA 10, pH 7.2 adjusted with CsOH. In some experiments, Cs-glutamate was replaced equimolarly by K-glutamate or N-methyl-D-glucamine-chloride. Patch-clamp experiments were performed in the tight-seal whole-cell configuration at 21-25° C. High-resolution current recordings were acquired by a computer-based patch-clamp amplifier system (EPC-9, HEKA, Lambrecht, Germany). Sylgard-coated patch pipettes had resistances between 2-4 M after filling with the standard intracellular solution. […] Capacitive currents and series resistance were determined and corrected before each voltage ramp using the automatic capacitance compensation of the EPC-9. […]

[2] = biological target: T1, LTRPC7 (Mus musculus, UniProt Q923J1); experiment: Intracellular perfusion with ATP, whole-cell patch-clamp of recombinant LTRPC7; assay type: cell-based
T1 construct: expressed in transfected cells
Method: For patch-clamp experiments, cells grown on glass coverslips were transferred to the recording chamber and kept in a standard modified Ringer's solution of the following composition (in mM): NaCl 145, KCl 2.8, CsCl 10, CaCl2 1, MgCl2 2, glucose 10, Hepes.NaOH 10, pH 7.2. In some experiments, nominally Ca^2+ and/or Mg^2+-free extracellular solutions or isotonic Ca^2+ solutions (120 mM CaCl2) were applied by pressure ejection from wide-tipped pipettes. Intracellular pipette-filling solutions contained (in mM): Cs-glutamate 145, NaCl 8, MgCl2 1, Cs-BAPTA 10, pH 7.2 adjusted with CsOH. In some experiments, Cs-glutamate was replaced equimolarly by K-glutamate or N-methyl-D-glucamine-chloride. Patch-clamp experiments were performed in the tight-seal whole-cell configuration at 21-25° C. High-resolution current recordings were acquired by a computer-based patch-clamp amplifier system (EPC-9, HEKA, Lambrecht, Germany). Sylgard-coated patch pipettes had resistances between 2-4 M after filling with the standard intracellular solution. Immediately following establishment of the whole-cell configuration, voltage ramps of 50 ms duration spanning the voltage range of −100 to +100 mV were delivered from a holding potential of 0 mV at a rate of 0.5 Hz over a period of 200 to 400 seconds. All voltages were corrected for a liquid junction potential of 10 mV between external and internal solutions when internal solutions contained glutamate. Currents were filtered at 2.3 kHz and digitized at 100 μs intervals. Capacitive currents and series resistance were determined and corrected before each voltage ramp using the automatic capacitance compensation of the EPC-9. The low-resolution temporal development of currents at a given potential was extracted from individual ramp current records by measuring the current amplitudes at voltages of −80 mV or +80 mV.

[3] = test system: RBL-2H3; experiment: ATP-dependent endogenous currents, whole-cell patch-clamp; assay type: cell-based; details: 6 mM ATP in pipette solution
Method: as §1

[4] = test system: Jurkat T-lymphocytes; experiment: as above; assay type: cell-based; details: 6 mM ATP in pipette solution
Method: as §1

T1 sequence (Q923J1 2-1863 limits assumed): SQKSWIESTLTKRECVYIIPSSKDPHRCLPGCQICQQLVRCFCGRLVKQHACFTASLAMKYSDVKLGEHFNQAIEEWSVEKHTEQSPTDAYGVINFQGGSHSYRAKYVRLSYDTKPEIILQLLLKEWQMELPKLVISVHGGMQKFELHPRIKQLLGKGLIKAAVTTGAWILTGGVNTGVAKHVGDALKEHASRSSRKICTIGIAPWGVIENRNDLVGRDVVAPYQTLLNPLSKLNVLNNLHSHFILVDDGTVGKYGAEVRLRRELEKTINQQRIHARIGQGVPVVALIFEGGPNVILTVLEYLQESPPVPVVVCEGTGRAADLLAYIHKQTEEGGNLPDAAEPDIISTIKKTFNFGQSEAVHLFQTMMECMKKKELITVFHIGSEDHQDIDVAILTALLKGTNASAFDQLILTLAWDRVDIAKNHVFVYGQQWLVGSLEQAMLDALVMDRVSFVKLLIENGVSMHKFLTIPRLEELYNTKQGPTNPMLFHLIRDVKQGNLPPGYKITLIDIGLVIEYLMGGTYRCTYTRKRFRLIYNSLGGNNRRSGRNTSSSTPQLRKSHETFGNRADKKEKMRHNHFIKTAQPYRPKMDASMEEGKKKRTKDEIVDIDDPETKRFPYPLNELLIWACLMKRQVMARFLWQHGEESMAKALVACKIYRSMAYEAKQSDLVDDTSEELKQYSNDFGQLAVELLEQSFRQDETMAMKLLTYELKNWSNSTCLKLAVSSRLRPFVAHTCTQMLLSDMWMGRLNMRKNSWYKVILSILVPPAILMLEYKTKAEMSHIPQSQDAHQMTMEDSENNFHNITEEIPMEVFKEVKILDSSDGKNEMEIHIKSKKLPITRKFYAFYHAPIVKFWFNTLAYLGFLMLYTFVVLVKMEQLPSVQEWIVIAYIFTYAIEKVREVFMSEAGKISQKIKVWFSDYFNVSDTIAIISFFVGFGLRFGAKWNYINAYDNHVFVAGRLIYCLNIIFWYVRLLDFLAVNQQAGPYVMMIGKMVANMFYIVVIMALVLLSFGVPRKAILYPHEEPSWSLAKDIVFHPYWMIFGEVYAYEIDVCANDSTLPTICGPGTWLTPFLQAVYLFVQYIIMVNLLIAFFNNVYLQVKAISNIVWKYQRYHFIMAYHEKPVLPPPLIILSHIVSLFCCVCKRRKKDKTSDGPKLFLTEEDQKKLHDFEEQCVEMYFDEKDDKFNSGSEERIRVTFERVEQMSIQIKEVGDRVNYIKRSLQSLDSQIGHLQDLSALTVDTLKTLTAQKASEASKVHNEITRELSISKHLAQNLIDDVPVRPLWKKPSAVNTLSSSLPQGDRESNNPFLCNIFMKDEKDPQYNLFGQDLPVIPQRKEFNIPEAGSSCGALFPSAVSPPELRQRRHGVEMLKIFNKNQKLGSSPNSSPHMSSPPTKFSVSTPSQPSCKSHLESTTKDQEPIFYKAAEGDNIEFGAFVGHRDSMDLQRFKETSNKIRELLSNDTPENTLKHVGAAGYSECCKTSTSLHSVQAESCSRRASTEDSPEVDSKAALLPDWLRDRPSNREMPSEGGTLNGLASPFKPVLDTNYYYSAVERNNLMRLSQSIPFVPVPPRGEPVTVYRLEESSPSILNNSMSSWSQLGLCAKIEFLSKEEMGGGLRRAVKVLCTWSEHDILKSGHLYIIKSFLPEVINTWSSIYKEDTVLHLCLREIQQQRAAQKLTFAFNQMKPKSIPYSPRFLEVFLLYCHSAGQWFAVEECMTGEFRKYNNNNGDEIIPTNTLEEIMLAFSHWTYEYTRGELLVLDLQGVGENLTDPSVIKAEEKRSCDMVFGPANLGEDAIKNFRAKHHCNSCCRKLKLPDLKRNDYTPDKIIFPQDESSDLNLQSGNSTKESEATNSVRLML

intracellular concentration that causes the LTRPC7 channel to close ([2]; intracellular ATP): 6-10 millimolar | intracellular concentration that causes the LTRPC7 channel to reopen ([2]; intracellular ATP): 0-4 millimolar
Structure (SMILES): Nc1ncnc2c1ncn2[C@@H]1O[C@H](COP(=O)(O)OP(=O)(O)OP(=O)(O)O)[C@@H](O)[C@H]1O [ATP]
outwardly rectifying cationic conductance [1]: absent | change of maximum outward current after whole-cell establishment ([2]; 6 mM ATP in pipette, +80 mV, 300 s): currents are actually decreasing after break-in | outwardly rectifying cationic conductance [3]: absent | outwardly rectifying cationic conductance [4]: absent
